How the values were obtained:
[1] = test system: mAb2 cells (CHO-K1 cells expressing IgG1 mAb2); experiment: Fed-batch culture in 96 deep-well plates, constant osmolality (315 mOsm/kg), increasing sugar concentration (experimental approach 1); type: cell-based, Chinese hamster; conditions: for increase of High Mannose (HM) species of mAb2 with respect to control: absolute change; for increase of HM for mAb2 (overall conclusion): constant osmolality, concentration not given
Description: (§1) Assays were performed with two CHO cell lines: • CHO-S cells expressing IgG1 mAb1, herein “Cells mAb1” or “mAb1 cells”. “mAb1” is a fully human monoclonal antibody directed against a soluble protein. Its isoelectric point (pI) is about 8.20-8.30. • CHO-K1 cells expressing IgG1 mAb2, herein “Cells mAb2” or “mAb2 cells”. “mAb2” is a humanized monoclonal antibody directed against a receptor found on the cell membrane. Its isoelectric point (pI) is about 9.30.
(§2) Deepwell plates: Cells expressing mAb2 were inoculated at 0.2×10^6 cells per millilitre (mL), whereas cells expressing mAb1 were inoculated at 0.3×10^6 cells per mL.
(§3) All assays were performed in fed-batch culture.
(§4) A serum-free chemically defined culture medium was used. It was used as it is (o be adapted), or it was supplemented with D-(+)-Raffinose pentahydrate (Sigma-Aldrich, 83400-25G) at different concentrations (0-45 mM). The culture medium was fed, on a regular basis, with a chemically defined feed medium, as well as with glucose in order to keep said glucose level in the range of >0 to about 8 g/L.
(§5) The cultures were performed: • In deepwell plates with a working volume of 450 μL. They were incubated at 36.5° C., 5% de CO2, 90% humidity and shaken at 320 rpm. Each of the fed-batch culture lasted 14 days. • In Spin Tubes (ST) with a working volume of 30 mL (with as permable lid). They were inoculated with a cell density of 0.3*10^6 cells/mL and maintained at 36.5° C., 320 rpm, 5% CO2 and 90% humidity for 14 days.
(§6) Viable cell density and viability were measured with the Guava easyCyte® flow cytometer.
(§7) Antibody titers were measured with the fortéBIO Octet®.
(§8) Glycosylation profiles were established by capillary gel electrophoresis with laser-induced fluorescence (CGE-LIF). Groups of glycans were defined as thereafter in Table 2.
(§9) Experiment was performed to check whether high osmolality or high sugar concentration have an influence on the viability of the cells, VCD as well as on amount of High Mannose (HM) species. A chemically defined proprietary medium with lower osmolality (PM-200) compared to standard media, was used to vary sugar concentrations from 1-150 mM (green) while maintaining the osmolality of standard media (315 mOsm/kg) via supplementation with NaCl (blue), as illustrated in FIG. 1. Standard media and PM-200 differ in the composition, so the missing amounts of raw material were added (except NaCl). As sugars raffinose (a trisaccharide) and sucrose (a disaccharide) were chosen. Stock solutions (raffinose 22 mM, raffinose 220 mM, sucrose 50 mM, sucrose 1 M and NaCl 1 M) were prepared and added to the media before inoculation.
(§10) Stock solutions were prepared with media to prevent dilution. The given concentrations equal the concentrations in media before incoculation. CHO-S cells (=mAb1 cells) expressing mAb1 were expanded for 49 days, CHO-K1 (=mAb2 cells) expressing mAb2 were expanded for 28 days.

[2] = test system: mAb1 cells (CHO-S cells expressing IgG1 mAb1); experiment: as above; type: cell-based, Chinese hamster; conditions: for increase of High Mannose (HM) species of mAb1 with respect to control: absolute change; for cell growth with increasing sugar concentration: 0-127.5 mM; for increase of HM for mAb1 (overall conclusion): constant osmolality, concentration not given
Description: as §1, §2, §3, §4, §5, §6, §7, §8, §9, §10

[3] = test system: mAb2 cells (CHO-K1 cells expressing IgG1 mAb2); experiment: Fed-batch culture in deep-well plates, 0 or 30 mM raffinose with increasing osmolality (experimental approach 2); type: cell-based, Chinese hamster
Description: as §1, §2, §3, §4, §5, §6, §7, §8, §10
The second experimental approach was performed with increasing osmolality and constant sugar concentrations (see table 3 and methods in example 1).

[4] = test system: mAb1 cells (CHO-S cells expressing IgG1 mAb1); experiment: Fed-batch culture in Spin Tubes, constant osmolality (315 mOsm/kg), increasing raffinose concentration; type: cell-based, Chinese hamster
Description: as §1
Spintubes: Cells expressing both mAb1 and mAb2 were inoculated at 0.3×10^6 cells per mL.
as §3, §4, §5
Glycosylation profiles were established by capillary gel electrophoresis with laser-induced fluorescence (CGE-LIF). Groups of glycans were defined as thereafter in Table 2. […]
A second experiment with constant osmolality (315 mOsm/kg) and increasing raffinose concentration was performed in Spin Tubes with a working volume of 30 mL and mAb1 cells. FIG. 10a depicts VCD and viability from mAb1 cells of the experimental approach with constant osmolality and increasing raffinose concentration in Spin Tubes. […] The lowest VCD was obtained at 100 mM raffinose (10.2±0.2*10^6 cells/mL), as illustrated in FIG. 10b.

recombinant CHO cells = conditions: cited from earlier work
[5] = 100 mM sugar, 315 mOsm/kg, working day 14
[6] = 1 mM sugar in medium, 315 mOsm/kg, 14-day culture
[7] = 5 mM sugar, 315 mOsm/kg, working day 14
[8] = 425 mOsm/kg with 30 mM raffinose
[9] = 100 mM raffinose, Spin Tubes, absolute change
[10] = 50 mM sugar, 315 mOsm/kg, working day 14
[11] = 127.5 mM sugar, 315 mOsm/kg, working day 14
[12] = 80 mM sugar, 315 mOsm/kg, working day 14

For `OC[C@H]1O[C@H](OC[C@H]2O[C@H](O[C@]3(CO)O[C@H](CO)[C@@H](O)[C@@H]3O)[C@H](O)[C@@H](O)[C@@H]2O)[C@H](O)[C@@H](O)[C@H]1O` [raffinose, O-α-D-Galactopyranosyl-(1→6)-α-D-g lucopyranosyl-(1→2)-β-D-fructofuranoside], the “maximum cell concentration (VCD)” value ([1]; 5 mM sugar, 315 mOsm/kg) was 11.85±1.1 *10^6 cells/mL, the “maximum VCD (lowest of the conditions)” value ([1]; 80 mM sugar, 315 mOsm/kg) was 6.4±1.7 *10^6 cells/mL and the specific productivity ([1]; 100 mM sugar, 315 mOsm/kg) was “about 30 pg/cell/day”. For the same compound, the “increase of High Mannose (HM) species of mAb2 with respect to control” value ([1]; 100 mM sugar, 315 mOsm/kg) was 6.3%, the harvest titer [1, 5] was “about 2350 mg/L” and the “cell growth with increasing sugar concentration” value ([1]; 315 mOsm/kg) was “reduced”. For the same compound, the “change of fucosylated species of mAb2 with higher sugar concentration” value ([1]; 315 mOsm/kg) was “decrease”, the “change of galactosylated, HM and non-fucosylated species of mAb2 with higher sugar concentration” value ([1]; 315 mOsm/kg) was “increase” and the “increase of HM for mAb2 (overall conclusion)” value [1] was 6%. For the same compound, the “maximum cell concentration (VCD)” value [2, 6] was 16.2±1.0 *10^6 cells/mL, the cell viability [2, 7] was “about 57%” and the absolute harvest titer ([2]; 10 mM sugar, 315 mOsm/kg, working day 14) was “about 2650 mg/L”. The “increase of High Mannose (HM) species of mAb1 with respect to control” value ([2]; 50 mM sugar, 315 mOsm/kg) was 6.8%, the “maximum cell concentration (VCD)” value ([2]; 100 mM sugar in medium, 315 mOsm/kg) was 2.3±2.1 *10^6 cells/mL and the specific productivity [2, 5] was “about 45 pg/cell/day”. For the same compound, the “product titer compared to control” value ([2]; 1-65 mM sugar, 315 mOsm/kg, working day 14) was “higher product titer than control”, the absolute harvest titer ([2]; 80-127.5 mM sugar, 315 mOsm/kg, working day 14) was 825 to 975 mg/L and the “change of fucosylated species of mAb1 with increasing sugar concentration” value ([2]; 315 mOsm/kg) was “decrease”. The “change of galactosylated, HM and non-fucosylated species of mAb1 with increasing sugar concentration” value ([2]; 315 mOsm/kg) was “increase”, the “cell growth with increasing sugar concentration” value ([2]; 315 mOsm/kg) was “inhibited” and the “specific productivity with increasing sugar concentration” value ([2]; 315 mOsm/kg, working day 14) was “increased”. The “increase of HM for mAb1 (overall conclusion)” value [2] was 7%, the “viability at the end of the experiment” value ([3]; 375 mOsm/kg and 30 mM raffinose) was “about 59%” and the absolute harvest titer ([3]; 425 mOsm/kg and 30 mM raffinose, working day 14) was “about 1150 mg/L”. The “increase of HM species of mAb2 with respect to control (315 mOsm/kg)” value [3, 8] was 8.5%, the “maximum VCD (lowest of the conditions)” value [3, 8] was 8.2±2.3 *10^6 cells/mL and the “maximum cell concentration (VCD)” value ([4]; 10 mM raffinose, Spin Tubes, n=2) was 17.8±0.2 *10^6 cells/mL. For the same compound, the “concentration of antibodies (harvest titer)” value ([4]; 10 mM raffinose, working day 14, Spin Tubes) was “about 2200 mg/L”, the “increase of productivity versus control” value ([4]; 100 mM raffinose, Spin Tubes) was “about 64%” and the “productivity per cell per day (PCD), peak” value ([4]; 100 mM raffinose, Spin Tubes) was “about 23 pg/cell/day”. For the same compound, the “viability at the end of cultivation” value ([4]; 100 mM raffinose, Spin Tubes) was “about 86%”, the “decrease of fucosylated glycans of mAb1 with respect to control” value [4, 9] was 15.9% and the “increase of Man5 of mAb1 with respect to control” value [4, 9] was 7.7%. The “maximum VCD (lowest of the conditions)” value ([4]; 100 mM raffinose, Spin Tubes, n=2) was 10.2±0.2 *10^6 cells/mL, the “acid isoforms and amount of aggregates with increasing raffinose concentration” value ([4]; Spin Tubes, data not shown) was “increased” and the “amount of alkaline isoforms with increasing raffinose concentration” value ([4]; Spin Tubes, data not shown) was “decreased”. The “absolute change of unknown, galactosylated and sialylated glycoforms” value ([4]; raffinose supplementation, Spin Tubes) was “not affected” and the “absolute harvest titer compared to control” value ([4]; supplemented raffinose (10-100 mM), Spin Tubes) was “higher than the control”.
In the case of `CCCC(=O)[O-].[Na+]` [sodium butyrate], the “cell viability at the end of the production run” value (recombinant CHO cells; batch culture, after 8 days of culture) is given as “less than 45%” and the cell viability (recombinant CHO cells; perfusion batch culture, within 6 days of treatment) is given as 15%.
In the case of `OC[C@H]1O[C@@](CO)(O[C@H]2O[C@H](CO)[C@@H](O)[C@H](O)[C@H]2O)[C@@H](O)[C@@H]1O` [sucrose, α-D-glucopyranosyl-(1→2)-β-D-fructofuranoside], the absolute harvest titer [1, 7] is reported as “about 700 mg/L”, the “maximum cell concentration (VCD)” value ([1]; 10 mM sugar, 315 mOsm/kg) is reported as 11.1±1.6 *10^6 cells/mL and the absolute harvest titer [1, 10] is reported as “about 2100 mg/L”. The specific productivity [1, 10] was “about 21 pg/cell/day”, the “increase of High Mannose (HM) species of mAb2 with respect to control” value ([1]; 100 mM sugar, 315 mOsm/kg) was 6.0% and the “maximum VCD (lowest of the conditions)” value ([1]; 127.5 mM sugar, 315 mOsm/kg) was 6.9±1.1 *10^6 cells/mL. The “increase of High Mannose (HM) species of mAb2 with respect to control” value ([1]; 127.5 mM sugar, 315 mOsm/kg) was 9.1%, the specific productivity [1, 11] was “about 24 pg/cell/day” and the “change of fucosylated species of mAb2 with higher sugar concentration” value ([1]; 315 mOsm/kg) was “decrease”. For the same compound, the “change of galactosylated, HM and non-fucosylated species of mAb2 with higher sugar concentration” value ([1]; 315 mOsm/kg) was “increase”, the “increase of HM for mAb2 (overall conclusion)” value [1] was 9% and the “production of antibodies with respect to control” value ([1]; sugar supplementation, 315 mOsm/kg, working day 14) was “decrease”. The “maximum cell concentration (VCD)” value [2, 6] was 18.2±1.7 *10^6 cells/mL, the absolute harvest titer ([2]; 1 mM sugar, 315 mOsm/kg, working day 14) was “about 2800 mg/L” and the absolute harvest titer [2, 12] was about 2550 mg/L. For the same compound, the specific productivity [2, 12] was “about 26 pg/cell/day”, the “increase of High Mannose (HM) species of mAb1 with respect to control” value ([2]; 100 mM sugar, 315 mOsm/kg) was 14.2% and the “maximum cell concentration (VCD)” value ([2]; 127 mM (maximum tested) sugar, 315 mOsm/kg) was 9.6±3.2 *10^6 cells/mL. The “increase of High Mannose (HM) species of mAb1 with respect to control” value ([2]; 127.5 mM sugar, 315 mOsm/kg) was 14.3%, the cell viability [2, 11] was about 64% and the “change of fucosylated species of mAb1 with increasing sugar concentration” value ([2]; 315 mOsm/kg) was “decrease”. For the same compound, the “change of galactosylated, HM and non-fucosylated species of mAb1 with increasing sugar concentration” value ([2]; 315 mOsm/kg) was “increase”, the “cell growth with increasing sugar concentration” value ([2]; 315 mOsm/kg) was “inhibited” and the “specific productivity with increasing sugar concentration” value ([2]; 315 mOsm/kg, working day 14) was “no change”. The “increase of HM for mAb1 (overall conclusion)” value [2] was 14%.
